Test [1] in a line: DPPH radical-scavenging assay of the isolated compounds. The settings on record: mean ± SD, n = 3. How it is done:
The DPPH radical-scavenging assay was performed according to a previously described method. All tests were performed in triplicate. Ascorbic acid and gallic acid were used as positive controls.

A short description of test [2]: Superoxide anion radical-scavenging assay (NADH/PMS system). The settings on record: isolated compounds; mean ± SD, n = 3. An excerpt: Superoxide radical were generated by the NADH/PMS system according to a reported protocol. Gallic acid was used as positive control.
For test [3], the target named is T1, α-Glucosidase type I (EC 3.2.1.20) (Saccharomyces cerevisiae, UniProt P53341).
T1 construct: purchased Sigma-Aldrich Chemical Co. (St. Louis, MO)
Description: biochemical. An excerpt:
α-Glucosidase type I (EC 3.2.1.20) from baker's yeast, p-nitrophenyl α-D-glucopyranoside (PNPG), streptozotocin (STZ), were purchased from Sigma-Aldrich Chemical Co. (St. Louis, MO). […] Phenazine methosulfate was purchased from J&K Chemical Ltd. (Shanghai, China). 2,2-Diphenyl-1-picrylhdrazyl (DPPH) was product of Aladdin Chemistry Co. Ltd. (Shanghai, China). Silica gel (200–300 mesh, Anhui Liangchen Silicon Material Co. Ltd. Anhui, China), Sephadex LH-20 (Pharmacia Biothech AB, Uppsala, Sweden), and ODS (40–60 μm, Merck KGaA, Darastadt, Germany) were used for column chromatography. HPLC-grade methanol was purchased from Jiangsu Hanbang Science and Technology Co. Ltd. (Nanjing, China). All other analytical chemicals and reagents were purchased from Sinopharm Chemical Regent Co. Ltd. (Shanghai, China).
The α-glucosidase inhibitory studies were performed spectrophotometrically on 96-well microplate reader according to a reported method. […] The assay was performed in triplicate.

[4] abbreviates: isolated compounds, mean ± SD, n = 3, read-out: IC50 α-glucosidase.

Where two headings read alike, the source gives them in different places.

T1 sequence (P53341 whole entry): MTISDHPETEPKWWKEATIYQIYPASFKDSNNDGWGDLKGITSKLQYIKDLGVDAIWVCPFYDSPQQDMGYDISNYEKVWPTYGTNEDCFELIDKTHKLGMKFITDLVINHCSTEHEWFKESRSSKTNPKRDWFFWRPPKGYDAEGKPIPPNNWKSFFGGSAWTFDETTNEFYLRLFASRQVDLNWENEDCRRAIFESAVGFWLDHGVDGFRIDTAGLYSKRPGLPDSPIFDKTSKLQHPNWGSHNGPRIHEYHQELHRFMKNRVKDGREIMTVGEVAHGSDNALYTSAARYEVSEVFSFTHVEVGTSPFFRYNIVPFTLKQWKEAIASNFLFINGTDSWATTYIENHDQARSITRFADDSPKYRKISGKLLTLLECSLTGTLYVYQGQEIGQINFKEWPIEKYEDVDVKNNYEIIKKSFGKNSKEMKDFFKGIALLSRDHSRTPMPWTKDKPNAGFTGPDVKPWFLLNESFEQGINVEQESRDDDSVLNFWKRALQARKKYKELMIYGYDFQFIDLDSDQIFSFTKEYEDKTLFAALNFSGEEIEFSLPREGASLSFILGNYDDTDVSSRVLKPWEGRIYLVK

In the case of `O=C1O[C@H]([C@@H](O)CO)C(O)=C1O` [Ascorbic acid, reference compound], the results for the 50% effective concentration (EC50) in test [1] and in test [2] were 33.5 ± 1.2 µM and greater than 500 µM, respectively.

In the case of `O=c1c(O)c(-c2ccc(O)c(O)c2)oc2cc(O)cc(O)c12` [Compound 1, quercetin], the EC50 in test [1] was found to be 11.9 ± 0.72 µM; in test [2] it was 27.9 ± 0.59 µM.

`O=c1c(O[C@@H]2O[C@H](CO)[C@@H](O)[C@H](O)[C@H]2O)c(-c2ccc(O)c(O)c2)oc2cc(O)cc(O)c12` [Compound 2, quercetin-3-O-β-D-glucopyranoside]: the midpoint of the response in test [1], the EC50, lay at 7.89 ± 0.5 µM. In test [3] (setting [4]), the 50% inhibitory concentration (IC50) turned out to be 165 ± 11.6 µM.

For the compound `CC(=O)OC[C@H]1O[C@@H](Oc2c(-c3ccc(O)c(O)c3)oc3cc(O)cc(O)c3c2=O)[C@H](O)[C@@H](O)[C@@H]1O` [Compound 3, quercetin 3-O-(6′′-O-acetyl)-β-D-glucopyranoside], the concentration for a half-maximal effect (EC50) in test [1] stood at 11.8 ± 1.04 µM; in test [2], 45.1 ± 1.66 µM. Besides, the half-inhibitory concentration (IC50) in test [3] (setting [4]) amounted to 310 ± 12.7 µM.

For the compound `C[C@@H]1O[C@@H](OC[C@H]2O[C@@H](Oc3c(-c4ccc(O)c(O)c4)oc4cc(O)cc(O)c4c3=O)[C@H](O)[C@@H](O)[C@@H]2O)[C@H](O)[C@H](O)[C@H]1O` [Compound 4, quercetin 3-O-β-D-rutinoside], the EC50 stood at 9.76 ± 0.61 µM in test [1] and 30.6 ± 0.99 µM in test [2]. Also, the IC50 in test [3] (setting [4]) was found to be 166 ± 11.7 µM.

As to `O=c1c(O)c(-c2ccc(O)c(O)c2)oc2cc(O[C@@H]3O[C@H](CO)[C@@H](O)[C@H](O)[C@H]3O)cc(O)c12` [Compound 5, quercetin 7-O-β-D-glucopyranoside], the EC50 in test [1] was determined as 9.8 ± 0.53 µM; in test [2] it was 24.6 ± 1.67 µM. The compound also returned an IC50 in test [3] of 370 ± 31.2 µM.

Take `O=c1c(O[C@@H]2O[C@H](CO)[C@@H](O)[C@H](O)[C@H]2O)c(-c2ccc(O)c(O)c2)oc2cc(O[C@@H]3O[C@H](CO)[C@@H](O)[C@H](O)[C@H]3O)cc(O)c12` [Compound 6, quercetin 3,7-di-O-β-D-glucopyranoside]: the concentration giving a half-maximal response (EC50) in test [1] turned out to be 9.18 ± 0.97 µM; in test [2], 50.7 ± 6.7 µM. The IC50 in test [3] (setting [4]) was 600 ± 45.9 µM.

Turning to `O=c1c(O[C@@H]2O[C@H](CO)[C@@H](O)[C@H](O)[C@H]2O)c(-c2ccc(O)cc2)oc2cc(O)cc(O)c12` [Compound 7, kaempferol 3-O-β-D-glucopyranoside], the results for the EC50 in test [1] and in test [2] were 301 ± 13.8 µM and 122 ± 5.49 µM, respectively.

As for `C[C@@H]1O[C@@H](OC[C@H]2O[C@@H](Oc3c(-c4ccc(O)cc4)oc4cc(O)cc(O)c4c3=O)[C@H](O)[C@@H](O)[C@@H]2O)[C@H](O)[C@H](O)[C@H]1O` [Compound 8, kaempferol 3-O-β-D-rutinoside], the EC50 is 152 ± 5.9 µM in test [1] and 196 ± 7.98 µM in test [2]. The compound further yielded an IC50 in test [3] of 178.3 ± 0.35 µM.

As for `O=C1C[C@@H](c2ccc(O[C@@H]3O[C@H](CO)[C@@H](O)[C@H](O)[C@H]3O)c(O)c2)Oc2cc(O)cc(O)c21` [Compound 9, 5,7,3′-trihydroxy-flavanone-4′-O-β-D-glucopyranoside], the EC50 in test [1] was determined as 79.4 ± 4.74 µM; in test [2], 90.7 ± 8.28 µM. Besides, the IC50 in test [3] worked out at 409 ± 38.7 µM.

On to `O=C1C[C@@H](c2ccc(O)c(O[C@@H]3O[C@H](CO)[C@@H](O)[C@H](O)[C@H]3O)c2)Oc2cc(O)cc(O)c21` [Compound 10, 5,7,4′-trihydroxy-flavanone-3′-O-β-D-glucopyranoside], for which the figures for the concentration for a half-maximal effect (EC50) in test [1] and in test [2] were 222 ± 13.8 µM and 194 ± 8.12 µM, respectively. In test [3] (setting [4]), the concentration for half-maximal inhibition (IC50) amounted to 728 ± 67.7 µM.

On to `O=C1c2c(O)cc(O[C@@H]3O[C@H](CO)[C@@H](O)[C@H](O)[C@H]3O)cc2O[C@H](c2ccc(O)cc2)[C@H]1O` [Compound 11, dihydrokaempferol 7-O-β-D-glucopyranoside], for which the EC50 in test [1] was determined as 6.46 ± 0.39 µM; in test [2], 58.3 ± 2.39 µM. Also, the IC50 in test [3] (setting [4]) turned out to be 933 ± 98.8 µM.

`CC(C)=CCc1c(O)ccc(C(=O)/C=C/c2ccc(O)cc2)c1O` [Compound 12, isobavachalcone]: the values for the EC50 in test [1] and in test [2] were greater than 500 µM and 150 ± 9.1 µM, respectively. Further, the IC50 in test [3] (setting [4]) came out at 67.3 ± 5.51 µM.

For `CC(C)=CCc1c(O)ccc(C(=O)/C=C/c2ccc(O)cc2O)c1O` [Compound 13, 2,4,2′,4′,-tetrahydroxy-3′-(3-methyl-2-butenyl)-chalcone], the EC50 in test [1] was greater than 500 µM; in test [2] it was 191 ± 15 µM. In addition, in test [3] (setting [4]), the IC50 was found to be 50 ± 3.18 µM.

For the compound `C=C(C)C1Cc2c(ccc(C(=O)/C=C/c3ccc(O)cc3)c2O)O1` (stereo not drawn) [Compound 14], the EC50 in test [1] was greater than 500 µM; in test [2] it was 175 ± 9.72 µM. Moreover, half-maximal inhibition in test [3] (IC50) was put at 225 ± 4.79 µM.

On to `O=C(O)Cc1c(O)cc(O)cc1OC(=O)c1ccc(O)c(O)c1` [Compound 15, 2-O-(3,4-dihydroxybenzoyl)-2,4,6-trihydroxyphenylacetic acid], for which the values for the EC50 in test [1] and in test [2] were 7.87 ± 0.73 µM and 15.2 ± 0.7 µM, respectively. This compound had a concentration for half-maximal inhibition (IC50) in test [3] of 116 ± 6.75 µM.

In the case of `COC(=O)Cc1c(O)cc(O)cc1OC(=O)c1ccc(O)c(O)c1` [Compound 16, 2-O-(3,4-dihydroxybenzoyl)-2,4,6-trihydroxyphenylmethylacetate], the 50% effective concentration (EC50) in test [1] was found to be 10.8 ± 0.94 µM; in test [2], 37.5 ± 2.62 µM. Besides, the midpoint of inhibition in test [3], the IC50, lay at 31.7 ± 3.38 µM.

As for `O=C(O)c1ccc(O)c(O)c1` [Compound 18, protocatechuic acid], the concentration for a half-maximal effect (EC50) in test [1] was found to be 11.9 ± 0.69 µM; in test [2], 101 ± 8.27 µM.

On to `COC(=O)c1ccc(O)c(O)c1` [Compound 20, protocatechuic acid methyl ester], for which the figures for the 50% effective concentration (EC50) in test [1] and in test [2] were 10.7 ± 0.34 µM and 214 ± 16.9 µM, respectively.

With `CCOC(=O)c1ccc(O)c(O)c1` [Compound 21, protocatechuic acid ethyl ester], the EC50 came out at 9.04 ± 0.21 µM in test [1] and 606 ± 25.8 µM in test [2].

On to `OCCc1ccc(O)cc1` [Compound 24, 2-(4-hydroxyphenyl)ethanol], for which the figures for the EC50 in test [1] and in test [2] were greater than 500 µM and 417 ± 23.9 µM, respectively.

Regarding `Oc1ccccc1O` [Compound 25, pyrocatechol], the concentration giving a half-maximal response (EC50) in test [1] was found to be 6.74 ± 0.28 µM; in test [2], 45.8 ± 2.97 µM.

The values above are taken from paper PMC3728024, “Antidiabetic and Antioxidant Effects and Phytochemicals of Mulberry Fruit (Morus alba L.) Polyphenol Enhanced Extract” (PLoS ONE, 2013).
